Test results: PubChem BioAssay (NCI)
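48-hour exposure; five concentrations; linearly interpolated endpoints. GI50 marks 50% less growth. TGI is the concentration that stops growth completely.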

Tests used:
Assay in all cases: inhibition of tumour cell growth, NCI panel, 48 h
[1] = tested on: 786-0 renal
[2] = tested on: A498 renal
[3] = tested on: A549 NSCLC
[4] = tested on: ACHN renal
[5] = tested on: BT-549 breast
[6] = tested on: CAKI-1 renal
[7] = tested on: CCRF-CEM leukemia
[8] = tested on: COLO 205 colon
[9] = tested on: DU-145 prostate
[10] = tested on: EKVX NSCLC
[11] = tested on: HCC-2998 colon
[12] = tested on: HCT-116 colon
[13] = tested on: HCT-15 colon
[14] = tested on: HL-60(TB) leukemia
[15] = tested on: HOP-62 NSCLC
[16] = tested on: HOP-92 NSCLC
[17] = tested on: HS 578T breast
[18] = tested on: HT29 colon
[19] = tested on: IGROV1 ovarian
[20] = tested on: K-562 leukemia
[21] = tested on: KM12 colon
[22] = tested on: LOX IMVI melanoma
[23] = tested on: M14 melanoma
[24] = tested on: MALME-3M melanoma
[25] = tested on: MCF7 breast
[26] = tested on: MDA-MB-231 breast
[27] = tested on: MDA-MB-435
[28] = tested on: MOLT-4 leukemia
[29] = tested on: NCI-H226 lung
[30] = tested on: NCI-H23 lung
[31] = tested on: NCI-H460 lung
[32] = tested on: NCI-H522 lung
[33] = tested on: NCI/ADR-RES ovarian
[34] = tested on: OVCAR-3 ovarian
[35] = tested on: OVCAR-4 ovarian
[36] = tested on: OVCAR-5 ovarian
[37] = tested on: OVCAR-8 ovarian
[38] = tested on: PC-3 prostate
[39] = tested on: RPMI-8226 leukemia
[40] = tested on: RXF 393 renal
[41] = tested on: SF-268 CNS
[42] = tested on: SF-295 CNS
[43] = tested on: SF-539 CNS
[44] = tested on: SK-MEL-2 melanoma
[45] = tested on: SK-MEL-28 melanoma
[46] = tested on: SK-MEL-5 melanoma
[47] = tested on: SK-OV-3 ovarian
[48] = tested on: SN12C renal
[49] = tested on: SNB-19 CNS
[50] = tested on: SNB-75 CNS
[51] = tested on: SR leukemia
[52] = tested on: SW-620 colon
[53] = tested on: T-47D breast
[54] = tested on: TK-10 renal
[55] = tested on: U251 CNS
[56] = tested on: UACC-257 melanoma
[57] = tested on: UACC-62 melanoma
[58] = tested on: UO-31 renal

With `NC(=O)c1c(Br)n(C2OC(CO)C(O)C2O)c2ncnc(N)c12` (centres undefined) the GI50 [1] was 3.04 µM, the TGI [1] was 41.9 µM and the GI50 [2] was 3.09 µM. For the same molecule, the TGI [2] was 15.6 µM, the GI50 [3] was 1.97 µM and the TGI [3] was 21.4 µM. For the same molecule, the GI50 [4] was 0.749 µM, the TGI [4] was 10.4 µM and the GI50 [5] was 1.08 µM. For the same molecule, the TGI [5] was 11.2 µM, the GI50 [6] was 0.369 µM and the TGI [6] was 2.43 µM. The GI50 [7] was 0.8 µM, the TGI [7] was 6.37 µM and the GI50 [8] was 1.45 µM. For the same molecule, the TGI [8] was 6.07 µM, the GI50 [9] was 0.544 µM and the TGI [9] was 8.86 µM. For the same molecule, the GI50 [10] was 4.31 µM, the TGI [10] was 59.8 µM and the GI50 [11] was 1.71 µM. The TGI [11] was 13.2 µM, the GI50 [12] was 0.71 µM and the TGI [12] was > 53.4 µM. The GI50 [13] was 0.427 µM, the TGI [13] was 7.03 µM and the GI50 [14] was 0.702 µM. For the same molecule, the TGI [14] was 4.11 µM, the GI50 [15] was 2.86 µM and the TGI [15] was 25.3 µM. The GI50 [16] was 0.45 µM, the TGI [16] was 7.08 µM and the GI50 [17] was 1.48 µM. The TGI [17] was 9.36 µM, the GI50 [18] was 1.03 µM and the TGI [18] was 32 µM. For the same molecule, the GI50 [19] was 0.609 µM, the TGI [19] was 3.95 µM and the GI50 [20] was 1.43 µM. For the same molecule, the TGI [20] was > 60.4 µM, the GI50 [21] was 1.91 µM and the TGI [21] was 12.3 µM. For the same molecule, the GI50 [22] was 0.684 µM, the TGI [22] was 6.09 µM and the GI50 [23] was 1.19 µM. It also gave a TGI [23] of 8.76 µM, a GI50 [24] of 1.47 µM and a TGI [24] of 6.34 µM. The GI50 [25] was 0.246 µM, the TGI [25] was 2.72 µM and the GI50 [26] was 3.55 µM. For the same molecule, the TGI [26] was 29.1 µM, the GI50 [27] was 1.73 µM and the TGI [27] was 7.68 µM. For the same molecule, the GI50 [28] was 0.36 µM, the TGI [28] was 3.46 µM and the GI50 [29] was 4.78 µM. It also gave a TGI [29] of 57.6 µM, a GI50 [30] of 2.15 µM and a TGI [30] of 13 µM. It also gave a GI50 [31] of 1.8 µM, a TGI [31] of 12.5 µM and a GI50 [32] of 2.54 µM. The TGI [32] was 11 µM, the GI50 [33] was 1.34 µM and the TGI [33] was 12.5 µM. The GI50 [34] was 1.24 µM, the TGI [34] was 5.59 µM and the GI50 [35] was 1.14 µM. The TGI [35] was 15.3 µM, the GI50 [36] was 1.39 µM and the TGI [36] was 45.5 µM. The GI50 [37] was 0.763 µM, the TGI [37] was 12.3 µM and the GI50 [38] was 0.593 µM. The TGI [38] was 7.57 µM, the GI50 [39] was 1.87 µM and the TGI [39] was 7.51 µM. For the same molecule, the GI50 [40] was 1.37 µM, the TGI [40] was 12.9 µM and the GI50 [41] was 2.49 µM. For the same molecule, the TGI [41] was 13.4 µM, the GI50 [42] was 2.78 µM and the TGI [42] was 18.7 µM. It also gave a GI50 [43] of 2.43 µM, a TGI [43] of 8.73 µM and a GI50 [44] of 1.82 µM. It also gave a TGI [44] of 5.62 µM, a GI50 [45] of 3.02 µM and a TGI [45] of 13.8 µM. It also gave a GI50 [46] of 2.65 µM, a TGI [46] of 9.85 µM and a GI50 [47] of 1.05 µM. The TGI [47] was 9.95 µM, the GI50 [48] was 1.61 µM and the TGI [48] was 12.9 µM. The GI50 [49] was 5.16 µM, the TGI [49] was 59.8 µM and the GI50 [50] was 1.92 µM. The TGI [50] was 18 µM, the GI50 [51] was 1.11 µM and the TGI [51] was 4.9 µM. The GI50 [52] was 0.545 µM, the TGI [52] was 9.87 µM and the GI50 [53] was 0.132 µM. For the same molecule, the TGI [53] was 2.88 µM, the GI50 [54] was 0.839 µM and the TGI [54] was 13.7 µM. For the same molecule, the GI50 [55] was 2.92 µM, the TGI [55] was > 86.4 µM and the GI50 [56] was 2.99 µM. It also gave a TGI [56] of 18.4 µM, a GI50 [57] of 1.63 µM and a TGI [57] of 3.83 µM. The GI50 [58] was 2.16 µM and the TGI [58] was 13.6 µM.

For `CC(=O)OC(C)(C)C1O[C@@]23OC1C[C@@H](C)[C@@H]2[C@@]1(C)CC[C@@]24C[C@@]25CC[C@H](OC2OCC(O)C(O)C2O)C(C)(C)[C@@H]5CCC4[C@]1(C)[C@H]3O` (some centres undefined), the TGI [1] was 18.9 µM, the TGI [2] was 18.2 µM and the TGI [3] was 21.4 µM. The TGI [4] was 17 µM, the TGI [5] was 40.6 µM and the TGI [6] was 20.4 µM. For the same molecule, the TGI [7] was > 38.3 µM, the TGI [8] was 25.1 µM and the TGI [9] was 15.4 µM. The TGI [10] was 18.8 µM, the TGI [11] was 25.7 µM and the TGI [12] was 19.1 µM. For the same molecule, the TGI [13] was 10.8 µM, the TGI [14] was 5.48 µM and the TGI [15] was 37.7 µM. For the same molecule, the TGI [16] was 31.6 µM, the TGI [17] was 45.6 µM and the TGI [18] was 24.7 µM. For the same molecule, the TGI [19] was 29.1 µM, the TGI [20] was > 93.2 µM and the TGI [21] was 13.8 µM. The TGI [22] was 31.4 µM, the TGI [23] was 24.2 µM and the TGI [24] was 42.1 µM. The TGI [25] was 11.9 µM, the TGI [26] was 14.8 µM and the TGI [27] was 32.3 µM. The TGI [28] was 21.5 µM, the TGI [29] was 19.5 µM and the TGI [30] was 15.7 µM. The TGI [31] was 32.2 µM, the TGI [32] was 25.3 µM and the TGI [33] was 27.8 µM. It also gave a TGI [34] of 13.4 µM, a TGI [35] of 23.8 µM and a TGI [36] of 31.8 µM. The TGI [37] was 64.8 µM, the TGI [38] was 17.1 µM and the TGI [39] was 29.1 µM. The TGI [40] was 30.3 µM, the TGI [41] was 41.3 µM and the TGI [42] was 24.7 µM. The TGI [43] was 12 µM, the TGI [44] was 39 µM and the TGI [45] was 29.8 µM. For the same molecule, the TGI [46] was 23.3 µM, the TGI [47] was 28.6 µM and the TGI [48] was 10.7 µM. It also gave a TGI [49] of 18.6 µM, a TGI [50] of 46.5 µM and a TGI [51] of 15.2 µM. For the same molecule, the TGI [52] was > 100 µM, the TGI [53] was 79.4 µM and the TGI [54] was 24.5 µM. The TGI [55] was 22.1 µM, the TGI [56] was 32.9 µM and the TGI [57] was 27.7 µM. The TGI [58] was 29.7 µM.
